In the assay the target is T1, EGFR (Homo sapiens, UniProt P00533).
T1 construct: started at nucleotide 2189 (corresponding to amino acid 667) and ended at the termination codon; made in house; host or cells: Sf9 insect cells (baculovirus)
Description: EGFR Kinase Assay. In kind it is biochemical. The conditions noted are these: for IC50: GST-EGFR, 5 μM ATP. From the text: The portion was PCR amplified with primers that added the lambda attB sequences to each end, recombined into an entry vector, then into a, GST destination vector (as described in Gateway Technologies Manual by Invitrogen Corporation, Carlsbad, Calif.).
The destination vector was recombined in the DH10BAC strain of bacteria to produce a bacmid. The bacmid was transfected into Sf 9 cells and the supernatant containing the baculovirus was collected. The GSTEGFR protein was purified using large cultures of Sf 9 cells infected with stock virus. After an appropriate period of time, the cells were collected and lysed. The GSTEGFR was then purified from the lysate on Glutathione-Sepharose columns (as described by Amersham Biosciences, Buckinghamshire, United Kingdom).
The free biotin was separated from the biotinylated polyGluTyr on a gel filtration column.
A mixture of a 10× kinase buffer (500 mM Tris at pH 8.0, 100 mM Magnesium Chloride and 1 mM Sodium Vanadate), DTT (1 mM final from 500 mM stock), ATP (5 μM final from 10 mM stock), biotinylated polyGluTyr (10 μg/μL stock), γ-^33P ATP (10 μCi/μL stock) and water was added to each well (90 μL/well) of a Streptavidin Flashplate (Perkin Elmer, Wellesley, Mass.).
Test compound in 100% DMSO (2 μL) was added to the appropriate wells. Diluted GSTEGFR (1:300 dilution in 50 mM Tris at pH 8.0 and 0.1% bovine serum albumin) (10 μL) was added to the wells to initiate the reactions.
The plates were incubated at 30° C. for 1 hr with shaking. The reacted contents were removed and the plates were sequentially washed three times with a 1×PBS stop buffer (300 μL without Magnesium and Calcium) and 100 mM EDTA. After the final wash, the same stop buffer (200 μL) was added to the wells. The plates were then sealed and read on the TopCount scintillation counter.
Test compounds were assayed in triplicate at 16 concentrations at half-log dilutions starting at 200 uM. A maximum and minimum signal for the assay was determined on each plate. The percent inhibition of a test compound was calculated according to the formula
For a series of test concentrations, the IC50 was derived by graphing percent inhibition against the log of the concentrations tested for a given compound.

IC50 and inhibition data for 30 molecules are collected here from patent US7605154B2, “Substituted Thiazolo [4,5-d]pyrimidines as protein kinase inhibitors” (Janssen Pharmaceutica N.V., priority 2005, dated 2009).

The IC50 is the midpoint of a concentration-inhibition curve. Usually inhibition stands for the change of the read-out against control, counted positive when it falls.

T1 sequence (P00533 667-1210 limits assumed): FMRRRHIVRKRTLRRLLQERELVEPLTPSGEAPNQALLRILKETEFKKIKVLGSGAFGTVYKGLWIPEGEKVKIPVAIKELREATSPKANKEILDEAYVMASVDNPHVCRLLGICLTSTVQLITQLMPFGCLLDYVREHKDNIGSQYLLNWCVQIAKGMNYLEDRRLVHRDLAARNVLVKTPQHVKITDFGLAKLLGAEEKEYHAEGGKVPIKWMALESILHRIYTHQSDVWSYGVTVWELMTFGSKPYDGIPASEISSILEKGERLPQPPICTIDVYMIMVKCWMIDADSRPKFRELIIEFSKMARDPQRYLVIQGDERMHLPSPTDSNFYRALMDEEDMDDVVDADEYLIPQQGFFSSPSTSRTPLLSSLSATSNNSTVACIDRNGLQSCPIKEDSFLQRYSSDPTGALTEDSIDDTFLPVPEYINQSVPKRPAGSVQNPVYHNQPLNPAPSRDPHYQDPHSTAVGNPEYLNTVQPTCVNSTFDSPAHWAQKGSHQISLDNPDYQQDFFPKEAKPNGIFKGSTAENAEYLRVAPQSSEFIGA

Molecule `COc1cc(Nc2nc3ncnc(Nc4ccc(F)c(Cl)c4)c3s2)ccc1CN1CCCCC1` [Cpd 6, N^7-(3-chloro-4-fluoro-phenyl)-N^2-(3-methoxy4-piperidin-1-ylmethyl-phenyl)-thiazolo[4,5-d]pyrimidine-2,7-diamine] showed an IC50 of 20 nM.

`C#Cc1cccc(Nc2ncnc3nc(Nc4ccc(CN(CCOC)CCOC)cc4)sc23)c1` [Cpd 38, N^2-(4-{[bis-(2-methoxy-ethyl)-amino]-methyl}-phenyl)-N^7-(3-ethynyl-phenyl)-thiazolo[4,5-d]pyrimidine-2,7-diamine] registered an IC50 of 28.5 nM.

The molecule `NS(=O)(=O)c1ccc(Nc2nc3ncnc(Nc4ccc(Br)cc4F)c3s2)cc1` [Cpd 77, 4-[7-(4-bromo-2-fluoro-phenylamino)-thiazolo[4,5-d]pyrimidin-2-ylamino]-benzenesulfonamide] came in with an IC50 of 87 nM.

Consider `CCOC(=O)C1CCN(Cc2ccc(Nc3nc4ncnc(Nc5ccc(F)c(Cl)c5)c4s3)cc2)CC1` [Cpd 29, 1-{4-[7-(3-chloro-4-fluoro-phenylamino)-thiazolo[4,5-d]pyrimidin-2-ylamino]-benzyl}-piperidine-4-carboxylic acid ethyl ester], for which the IC50 is 27.8 nM.

Take `C#Cc1cccc(Nc2ncnc3nc(Nc4ccc(CNCC5COC(C)(C)O5)cc4)sc23)c1` (stereo not drawn) [Cpd 62, N^2-(4-{[(2,2-dimethyl-[1,3]dioxolan-4-ylmethyl)-amino]-methyl}-phenyl)-N^7-(3-ethynyl-phenyl)-thiazolo[4,5-d]pyrimidine-2,7-diamine]: 6.95 nM corresponded to half-maximal inhibition (IC50).

`C#Cc1cccc(Nc2ncnc3nc(Nc4ccc(Cn5ccnc5CC)cc4)sc23)c1` [Cpd 48, N^2-[4-(2-ethyl-imidazol-1-ylmethyl)-phenyl]-N^7-(3-ethynyl-phenyl)-thiazolo[4,5-d]pyrimidine-2,7-diamine] showed a half-maximal inhibitory concentration (IC50) of 9 nM.

Molecule `COc1ccc(Cl)cc1Nc1ncnc2nc(Nc3ccc(CN4CCOCC4)cc3)sc12` [Cpd 56, N^7-(5-chloro-2-methoxy-phenyl)-N^2-(4-morpholin-4-ylmethyl-phenyl)-thiazolo[4,5-d]pyrimidine-2,7-diamine] showed an IC50 of 36 nM.

On to `Fc1ccc(Nc2ncnc3nc(NCCN4CCOCC4)sc23)cc1Cl` [Cpd 51, N^7-(3-chloro-4-fluoro-phenyl)-N^2-(2-morpholin-4-yl-ethyl)-thiazolo[4,5-d]pyrimidine-2,7-diamine], for which the IC50 stood at 918 nM.

In the case of `Fc1ccc(Nc2ncnc3nc(Nc4ccc(CN5CCCCCC5)cc4)sc23)cc1Cl` [Cpd 19, N^2-(4-azepan-1-ylmethyl-phenyl)-N^7-(3-chloro-4-fluoro-phenyl)-thiazolo[4,5-d]pyrimidine-2,7-diamine], half-maximal inhibition (IC50) required 6 nM.

`C#Cc1cccc(Nc2ncnc3nc(Nc4ccc(NCCCN5CCOCC5)nc4)sc23)c1` [Cpd 72, N^7-(3-ethynyl-phenyl)-N^2-[6-(3-morpholin-4-yl-propylamino)-pyridin-3-yl]-thiazolo[4,5-d]pyrimidine-2,7-diamine]: the IC50 worked out at 28.2 nM.

`Fc1ccc(Nc2ncnc3nc(Nc4ccc(N5CCOCC5)cc4)sc23)cc1Cl` [Cpd 1, N^7-(3-chloro-4-fluoro-phenyl)-N^2-(4-morpholin-4-yl-phenyl)-thiazolo[4,5-d]pyrimidine-2,7-diamine] came in with a concentration for half-maximal inhibition (IC50) of 44 nM.

Take `COc1ccc(Nc2ncnc3nc(Nc4ccc(S(N)(=O)=O)cc4)sc23)cc1CN1CCOCC1` [Cpd 87, 4-[7-(4-methoxy-3-(morpholin-4-yl)methyl-phenylamino)-thiazolo[4,5-d]pyrimidin-2-ylamino]-benzenesulfonamide]: the inhibition at 2 µM (test concentration of 2 μM, compounds without an IC50, read-out: EGFR percent inhibition) stood at 13%.

In the case of `Fc1ccc(Nc2ncnc3nc(Nc4ccc(CN5CCSCC5)cc4)sc23)cc1Cl` [Cpd 20, N7-(3-chloro-4-fluoro-phenyl)-N^2-(4-thiomorpholin4-ylmethyl-phenyl)-thiazolo[4,5-d]pyrimidine-2,7-diamine], the IC50 is 49.3 nM.

As for `CN1CCN(Cc2ccc(Nc3nc4ncnc(Nc5ccc(F)c(Cl)c5)c4s3)cc2)CC1` [Cpd 5, N^7-(3-chloro-4-fluoro-phenyl)-N^2-[4-(4-methyl-piperazin-1-ylmethyl)-phenyl]-thiazolo[4,5-d]pyrimidine-2,7-diamine], the IC50 turned out to be 18.4 nM.

In the case of `Nc1ccc(Nc2nc3ncnc(Nc4ccc(F)c(Cl)c4)c3s2)cn1` [Cpd 71, N^2-(6-amino-pyridin-3-yl)-N^7-(3-chloro-4-fluoro-phenyl)-thiazolo[4,5-d]pyrimidine-2,7-diamine], the midpoint of inhibition, the IC50, lay at 44 nM.

`Brc1cccc(Nc2ncnc3nc(Nc4ccccc4)sc23)c1` [Cpd 90, N^7-(3-bromo-phenyl)-N^2-phenyl-thiazolo[4,5-d]pyrimidine-2,7-diamine] registered an IC50 of 16.5 nM.

In turn, `Oc1ccc(Nc2nc3ncnc(Nc4ccc(F)c(Cl)c4)c3s2)cc1` [Cpd 13, 4-[7-(3-chloro4-fluoro-phenylamino)-thiazolo[4,5-d]pyrimidin-2-ylamino]-phenol] came in with an IC50 of 95 nM.

With `COc1ccc(Nc2nc3ncnc(Nc4ccc(F)c(Cl)c4)c3s2)cn1` [Cpd 70, N^7-(3-chloro-4-fluoro-phenyl)-N^2-(6-methoxy-pyridin-3-yl)-thiazolo[4,5-d]pyrimidine-2,7-diamnine], the 50% inhibitory concentration (IC50) amounted to 19.6 nM.

In turn, `C#Cc1cccc(Nc2ncnc3nc(Nc4ccc(S(=O)(=O)N5CCOCC5)cc4)sc23)c1` [Cpd 45, N^7-(3-ethynyl-phenyl)-N^2-[4-(morpholine-4-sulfonyl)-phenyl]-thiazolo[4,5-d]pyrimidine-2,7-diamine] returned a concentration for half-maximal inhibition (IC50) of 22.5 nM.

In turn, `NS(=O)(=O)c1ccc(Nc2nc3ncnc(Nc4ccc(Br)c(Cl)c4)c3s2)cc1` [Cpd 82, 4-[7-(4-bromo-3-chloro-phenylamino)-thiazolo[4,5-d]pyrimidin-2-ylamino]-benzenesulfonamide] returned an IC50 of 5 nM.

`C#Cc1cccc(Nc2ncnc3nc(Nc4ccc(S(=O)(=O)NCCCN(C)C)cc4)sc23)c1` [Cpd 37, N-(3-dimethylamino-propyl)-4-[7-(3-ethynyl-phenylamino)-thiazolo[4,5-d]pyrimidin-2-ylamino]-benzenesulfonamide] registered an IC50 of 25.3 nM.

Turning to `CN(Cc1ccc(Nc2nc3ncnc(Nc4ccc(F)c(Cl)c4)c3s2)cc1)C[C@@H]1CCCO1` [Cpd 60, N^7-(3-chloro-4-fluoro-phenyl)-N^2-(4-{[methyl-(2S)-(tetrahydro-furan-2-ylmethyl)-amino]-methyl}-phenyl)-thiazolo[4,5-d]pyrimidine-2,7-diamine], the half-maximal inhibitory concentration (IC50) amounted to 23.9 nM.

As to `NS(=O)(=O)c1ccc(Nc2nc3ncnc(Nc4ccc(CCN5CCOCC5)cc4)c3s2)cc1` [Cpd 85, 4-[7-(4-(morpholin-4-yl)ethyl-phenylamino)-thiazolo[4,5-d]pyrimidin-2-ylamino]-benzenesulfonamide], the IC50 amounted to 10100 nM.

For the molecule `COc1ccc(Nc2nc3ncnc(Nc4ccc(F)c(Cl)c4)c3s2)cc1` [Cpd 12, N^7-(3-chloro4-fluoro-phenyl)-N^2-(4-methoxy-phenyl)-thiazolo[4,5-d]pyrimidine-2,7-diamine], half-maximal inhibition (IC50) was put at 117 nM.

`O=S(=O)(NCCO)c1ccc(Nc2nc3ncnc(Nc4ccc(F)c(Cl)c4)c3s2)cc1` [Cpd 39, 4-[7-(3-chloro-4-fluoro-phenylamino)-thiazolo[4,5-d]pyrimidin-2-ylamino]-N-(2-hydroxy-ethyl)-benzenesulfonamide] returned an IC50 of 2.5 nM.

The molecule `NS(=O)(=O)c1ccc(Nc2nc3ncnc(Nc4cccc(Cl)c4)c3s2)cc1` [Cpd 74, 4-[7-(3-chloro-phenylamino)-thiazolo[4,5-d]pyrimidin-2-ylamno]-benzenesulfonamide] showed a concentration for half-maximal inhibition (IC50) of 6.6 nM.

Consider `Clc1cccc(Nc2ncnc3nc(Nc4ccc(Cc5ccncc5)cc4)sc23)c1` [Cpd 9, N^7-(3-chloro-phenyl)-N^2-(4-pyridin-4-ylmethyl-phenyl)-thiazolo[4,5-d]pyrimidine-2,7-diamine], for which 18 nM corresponded to half-maximal inhibition (IC50).

In turn, `C#Cc1cccc(Nc2ncnc3nc(Nc4ccc(CN5CCC[C@H]5CO)cc4)sc23)c1` [Cpd 44, (2S)-(1-{4-[7-(3-ethynyl-phenylamino)-thiazolo[4,5-d]pyrimidin-2-ylamino]-benzyl}-pyrrolidin-2-yl)-methanol] returned an IC50 of 10 nM.

On to `Fc1ccc(Nc2ncnc3nc(Nc4ccccc4)sc23)cc1Cl` [Cpd 88, N^7-(3-chloro-4-fluoro-phenyl)-N^2-phenyl-thiazolo[4,5-d]pyrimidine-2,7-diamine], for which half-maximal inhibition (IC50) was put at 59.3 nM.

As for `NS(=O)(=O)c1ccc(Nc2nc3ncnc(Nc4cccc(CN5CCOCC5)c4)c3s2)cc1` [Cpd 84, 4-[7-(3-(morpholin-4-yl)methyl-phenylamino)-thiazolo[4,5-d]pyrimidin-2-ylamino]-benzenesulfonamide], the IC50 was 3300 nM.
